The record followed here is patent US12018011B2, “Macrocyclic compounds and compositions, and methods of preparing and using the same” (Kura Oncology, Inc., priority 2021, dated 2024).

Data set [1] is described as follows: Metabolic stability in mouse liver microsomes. Format: in vitro ADME. To be noted: CD-1 mouse liver microsomes 0.5 mg protein/mL, test compound 1 μM, 37° C.; read-out: T1/2 in MLM. The method, then:
(§1) The metabolic stability of the compounds disclosed herein was determined by measuring half-life (T1/2) of the compounds in the presence of mouse liver microsomes (MLM) or human liver microsomes (BILM).
(§2) Intermediate solution: 5 μL of compound and control stock solution (10 mM in dimethyl sulfoxide (DMSO)) were diluted with 495 μL of acetonitrile (ACN) (intermediate solution concentration: 100 μM, 99% ACN).
(§3) Working solution: 50 μL of compound and control intermediate solution (100 μM) were diluted with 450 μL of 100 mM potassium phosphate buffer (working solution concentration: 10 μM, 9.9% ACN).
(§4) Controls used in this assay: Testosterone, Diclofenac, and Propafenone.
(§5) Preparation Procedure: The appropriate amount of NADPH powder was weighed and diluted into a 10 mM MgCl2 solution (working solution concentration: 10 unit/mL; final concentration in reaction system: 1 unit/mL).
(§6) The appropriate concentrations of microsome working solutions were prepared in 100 mM potassium phosphate buffer.
(§7) Cold (4° C.) acetonitrile (CAN) containing 200 ng/mL tolbutamide and 200 ng/mL labetalol as internal standards (IS) was used as the stop solution.
(§8) Using an Apricot automation workstation, 10 μL/well of compound working solution were added to all 96-well reaction plates except the blank (T0, T5, T10, T20, T30, T60, and NCF60).
(§9) An Apricot automation workstation was used to add 80 μL/well of microsome solution to all reaction plates (Blank, T0, T5, T10, T20, T30, T60, and NCF60).
(§10) All reaction plates containing mixtures of compound and microsomes were pre-incubated at 37° C. for 10 minutes.
(§11) An Apricot automation workstation was used to add 10 μL/well of 100 mM potassium phosphate buffer to reaction plate NCF60.
(§12) Reaction plate NCF60 was incubated at 37° C. for 60 minutes.
(§13) After pre-incubation, an Apricot automation workstation was used to add 10 μL/well of NADPH regenerating system to every reaction plate except NCF60 (Blank, T0, T5, T10, T20, T30, and T60) to start the reaction. Final concentration of each component in incubation medium: Microsome (0.5 mg protein/mL); Test Compound (1 μM); Control Compound (1 μM); Acetonitrile (0.99%); DMSO (0.01%).
(§14) The reaction plates were incubated at 37° C. for 0 minute (T0, stop solution was added prior to microsome and NADPH solutions), 5 minutes (T5), 10 minutes (T10), 20 minutes (T20), 30 minutes (T30), 60 minutes (T60).
(§15) An Apricot automation workstation was used to add 300 μL/well of stop solution to each reaction plate at its appropriate end time point to terminate the reaction.
(§16) Each plate was sealed and shaken for 10 minutes.
(§17) After shaking, each plate was centrifuged at 4000 rpm and 4° C. for 20 minutes.
(§18) During centrifugation, an Apricot automation workstation was used to add 300 µL/well of HPLC grade water to eight new 96-well plates.
(§19) After centrifugation, an Apricot automation workstation was used to transfer 100 μL of supernatant from each reaction plate to its corresponding bioanaylsis plate.
(§20) Each bioanalysis plate was sealed and shaken for 10 minutes prior to LC-MS/MS analysis.
(§21) The equation of first order kinetics was used to calculate T1/2 and CLint(mic) (μL/min/mg).
A general note: Microsomes from liver hold many membrane-bound enzymes, among them those of drug oxidation.

Data set [2] in a line: Metabolic stability in human liver microsomes. To be noted: human liver microsomes 0.5 mg protein/mL, test compound 1 μM, 37° C.; read-out: T1/2 in HLM. It counts as in vitro ADME. The method, then:
as §1, §2, §3, §4, §5, §6, §7, §8, §9, §10, §11, §12, §13, §14, §15, §16, §17, §18, §19, §20, §21

Data set [3] has as its system T24/83 cells. The data set is described as follows: T24/83 cell proliferation assay (CellTiter-Glo). Format: cell-based. To be noted: Homo sapiens, 96 h, 4 days. The text has this:
T24/83 cell line was purchased from the European Collection of Authenticated Cell Cultures (Salisbury, UK). Recombinant human farnesyl transferase (FTase) and geranylgeranyl transferase type-1 (GGTase) were obtained from Crelux (Martinsried, Germany). Dansyl labelled GCVLS peptide was purchased from Bachem (Torrance, CA), and Dansyl labelled GCVLL peptide was purchased from Bio Synthesis (Lewisville, TX). Farnesyl Pyrophosphate (FPP) and Geranylgeranyl pyrophosphate (GGPP) were purchased from Cayman (Ann Arbor, MI).
Mutant oncogenic HRAS was originally identified in a human bladder carcinoma cell line called T24. T24/83 is a subline of T24 established more recently that has more favorable growth characteristics for in vitro assays. Thus, T24/83 is a well-characterized mutant HRAS-dependent cell line that is an ideal model for quantifying the HRAS-dependent antitumor activity of farnesyltransferase inhibitors.
T24/83 cells were inoculated into 384 well plates at 100 cells/well, and grown in the presence of inhibitor, 0.7% DMSO as a negative control, or 100 μM tipifarnib as a positive control, at 37° C. for 4 days. Cell viability was assessed using the CellTiter-Glo Kit (CTG) (Promega; Madison, WI). Luminescence was recorded using EnVision microplate reader (PerkinElmer; Waltham, MA). In this assay, tipifarmib was used as a positive control. All the assay plates passed the QC criteria (S/B, Z-factor).

Data set [4] addresses T1, Recombinant human farnesyl transferase (FTase) (Homo sapiens, UniProt P49356).
T1 construct: purchased Crelux (Martinsried, Germany)
The data set is described as follows: FTase fluorescence assay (farnesylation of dansyl-GCVLS peptide). Format: biochemical. To be noted: recombinant human FTase 2.5 nM, Dansyl-GCVLS 85 nM, FPP 30 nM, 30° C., 50 minutes.

Usually IC50 stands for the midpoint of a concentration-inhibition curve.

Consider `Cn1cncc1C1(O)c2ccc(Cl)c(c2)CCOc2cccc(c2)-c2cc(=O)n(C)c3ccc1cc23` (centres unmarked) [Compound 65, 4^4-chloro-3-hydroxy-2^1-methyl-3-(1-methyl-1H-imidazol-5-yl)-2^1,2^2-dihydro-7-oxa-2(4,6)-quinolina-1,4(1,3)-dibenzenacycloheptaphan-2^2-one], for which the half-life at 1 μM in data set [1] is 5 to 15 min; in data set [2], less than 30 min. Besides, the IC50 is 50 to 500 nM in data set [3] and no more than 10 nM in data set [4].

Consider `Cn1cncc1[C@@]1(O)c2ccc(C#N)c(c2)OCCc2cccc(c2)-c2cc(=O)n(C)c3ccc1cc23` [(S)-36, (S)-3-hydroxy-2^1-methyl-3-(1-methyl-1H-imidazol-5-yl)-2^2-oxo-2^1,2^2-dihydro-5-oxa-2(4,6)-quinolina-1,4(1,3)-dibenzenacycloheptaphane-4^4-carbonitrile], for which the half-life at 1 μM in data set [1] is 5 to 15 min; in data set [2] it was less than 30 min. In addition, the figures for the IC50 in data set [3] and in data set [4] were no more than 50 nM and no more than 10 nM, respectively.

Consider `[2H]C([2H])([2H])n1c(=O)cc2c3cc(ccc31)[C@@](O)(c1cncn1C)c1ccc(Cl)c(c1)OCCc1cccc-2c1` [(S)-28, (S)-4^4-chloro-3-hydroxy-2^1-(methyl-d3)-3-(1-methyl-1H-imidazol-5-yl)-2^1,2^2-dihydro-5-oxa-2(4,6)-quinolina-1,4(1,3)-dibenzenacycloheptaphan-2^2-one], for which the half-life at 1 μM was less than 5 min in data set [1] and less than 30 min in data set [2]. Also, the 50% inhibitory concentration (IC50) in data set [3] was no more than 50 nM; in data set [4] it was no more than 10 nM.

For `Cn1cncc1[C@@]1(N)c2ccc(Cl)c(c2)OCCc2cccc(c2)-c2cc(=O)n(C3CC3)c3ccc1cc23` [(S)-30, (S)-3-amino-4^4-chloro-2^1-cyclopropyl-3-(1-methyl-1H-imidazol-5-yl)-2^1,2^2-dihydro-5-oxa-2(4,6)-quinolina-1,4(1,3)-dibenzenacycloheptaphan-2^2-one], the half-life at 1 μM in data set [1] is less than 5 min; in data set [2], less than 30 min. Besides, the IC50 is 50 to 500 nM in data set [3] and no more than 10 nM in data set [4].

`Cn1cncc1C1(O)c2ccc(Cl)c(c2)COc2cccc(c2)-c2cc(=O)n(C)c3ccc1cc23` (centres unmarked) [Compound 45, 4^4-chloro-3-hydroxy-2^1-methyl-3-(1-methyl-1H-imidazol-5-yl)-2^1,2^2-dihydro-6-oxa-2(4,6)-quinolina-1,4(1,3)-dibenzenacyclohexaphan-2^2-one]: the half-life at 1 μM was greater than 15 min in data set [1] and greater than 100 min in data set [2]. In addition, the figures for the IC50 in data set [3] and in data set [4] were no more than 50 nM and no more than 10 nM, respectively.

`Cn1cncc1[C@@]1(O)c2ccc(Cl)c(c2)OCCc2cccc(c2)-c2cc(=O)n(C3CC3)c3ccc1cc23` [(S)-29, (S)-4^4-chloro-2^1-cyclopropyl-3-hydroxy-3-(1-methyl-1H-imidazol-5-yl)-2^1,2^2-dihydro-5-oxa-2(4,6)-quinolina-1,4(1,3)-dibenzenacycloheptaphan-2^2-one]: the values for the half-life at 1 μM in data set [1] and in data set [2] were less than 5 min and less than 30 min, respectively. In addition, the IC50 is 50 to 500 nM in data set [3] and no more than 10 nM in data set [4].

In the case of `Cn1cnnc1[C@@]1(N)c2ccc(C#N)c(c2)OCCc2cccc(c2)-c2cc(=O)n(C)c3ccc1cc23` [(S)-39, (S)-3-amino-2^1-methyl-3-(4-methyl-4H-1,2,4-triazol-3-yl)-2^2-oxo-2^1,2^2-dihydro-5-oxa-2(4,6)-quinolina-1,4(1,3)-dibenzenacycloheptaphane-4^4-carbonitrile], the half-life at 1 μM in data set [1] is greater than 15 min; in data set [2], greater than 100 min. Further, the results for the IC50 in data set [3] and in data set [4] were no more than 50 nM and no more than 10 nM, respectively.

On to `Cn1cnnc1[C@@]1(N)c2ccc(Cl)c(c2)OCCc2cccc(c2)-c2cc(=O)n(C3CC3)c3ccc1cc23` [(S)-35, (S)-3-amino-4^4-chloro-2^1-cyclopropyl-3-(4-methyl-4H-1,2,4-triazol-3-yl)-2^1,2^2-dihydro-5-oxa-2(4,6)-quinolina-1,4(1,3)-dibenzenacycloheptaphan-2^2-one], for which the half-life at 1 μM in data set [1] was less than 5 min; in data set [2], less than 30 min. The results for the IC50 in data set [3] and in data set [4] were 50 to 500 nM and no more than 10 nM, respectively.

On to `Cn1cncc1[C@@]1(O)c2ccc(Cl)c(c2)OCCc2cccc(c2)-c2cc(=O)[nH]c3ccc1cc23` [(S)-25, (S)-4^4-chloro-3-hydroxy-3-(1-methyl-1H-imidazol-5-yl)-2^1,2^2-dihydro-5-oxa-2(4,6)-quinolina-1,4(1,3)-dibenzenacycloheptaphan-2^2-one], for which the half-life at 1 μM in data set [1] was less than 5 min; in data set [2], less than 30 min. For the same compound, the IC50 in data set [3] is 50 to 500 nM; in data set [4], no more than 10 nM.

On to `Cn1cncc1C1(O)c2cccc(c2)OCCc2cccc(c2)-c2cc(=O)n(C)c3ccc1cc23` (centres unmarked) [Compound 23, 3-hydroxy-2^1-methyl-3-(1-methyl-1H-imidazol-5-yl)-2^1,2^2-dihydro-5-oxa-2(4,6)-quinolina-1,4(1,3)-dibenzenacycloheptaphan-2^2-one], for which the IC50 in data set [3] was no more than 50 nM; in data set [4], no more than 10 nM.
